Series [1] deals with T1, thioredoxin reductase 1 (TrxR1) (Rattus norvegicus, UniProt O89049).
T1 construct: gene Txnrd1; recombinant selenocysteine-containing rat TrxR1
T1 sequence (O89049 1-499): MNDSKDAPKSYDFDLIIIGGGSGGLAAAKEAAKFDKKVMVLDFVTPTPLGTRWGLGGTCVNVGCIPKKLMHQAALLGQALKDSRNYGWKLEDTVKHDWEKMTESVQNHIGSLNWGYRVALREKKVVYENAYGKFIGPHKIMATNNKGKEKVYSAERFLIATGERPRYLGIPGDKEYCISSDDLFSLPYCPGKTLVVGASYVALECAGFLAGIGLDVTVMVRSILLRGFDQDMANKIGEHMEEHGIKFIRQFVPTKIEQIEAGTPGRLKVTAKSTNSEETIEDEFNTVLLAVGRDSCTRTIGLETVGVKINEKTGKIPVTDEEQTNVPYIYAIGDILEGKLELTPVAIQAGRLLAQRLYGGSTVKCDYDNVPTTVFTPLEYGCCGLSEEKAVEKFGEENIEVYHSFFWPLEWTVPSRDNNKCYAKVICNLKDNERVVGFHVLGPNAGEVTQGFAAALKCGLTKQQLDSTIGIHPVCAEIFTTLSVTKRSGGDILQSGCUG
The series can be described thus: NADPH-dependent DTNB reduction assay with purified enzyme; irreversibility tested by desalting. Type of series: biochemical.

Series [2] concerns the target T1, thioredoxin reductase 1 (TrxR1). Kind of series: NADPH-dependent juglone reduction by purified enzyme, NADPH consumption at […] nm. Format: biochemical.

Turning to `O=S(=O)(CCSc1nc2ccccc2o1)c1nc2ccccc2s1` [MJ25, 2-{[2-(1,3-benzothiazol-2-ylsulfonyl)ethyl]thio}-1,3-benzoxazole], the “NADPH-dependent DTNB reduction assay with purified enzyme; irreversibility teste” value in series [1] is given as “we also confirmed that repurchased MJ25 inhibited recombinant TrxR1 (Figure 4a)”.

For `CC[P](CC)(CC)=[Au][S][C@@H]1O[C@H](COC(C)=O)[C@@H](OC(C)=O)[C@H](OC(C)=O)[C@H]1OC(C)=O` [auranofin], the “NADPH-dependent DTNB reduction assay with purified enzyme; irreversibility teste” value in series [1] is “Both MJ25 and auranofin were found to inhibit TrxR1 irreversibly”.

On to `O=C1C=CC(=O)c2c(O)cccc21` [juglone, 5-hydroxy-1,4-naphthoquinone], for which the “NADPH-dependent juglone reduction by purified enzyme, NADPH consumption at 340 n” value in series [2] was “using juglone as a Sec-independent substrate and the DTNB assay as a Sec-dependent activity control”.

These data come from article PMC4599284, “Redox effects and cytotoxic profiles of MJ25 and auranofin towards malignant melanoma cells” (Oncotarget, 2015).
